The nature of the data set: solvent given as SMILES.

Here are results for 37 compounds from the Deep4Chem optical property database.

Turning to `C(=C\c1nc2ccccc2[nH]1)/c1ccc(/C=C/c2nc3ccccc3[nH]2)cc1`, the absorption maximum amounted to 389 nm (in C1CCOC1); 382 nm (in CC#N); 395 nm (in CC(C)=O); 390 nm (in CN(C)C=O); 384 nm (in CO); 392 nm (in CS(C)=O).
For the setting “in ClCCl”, `CCCCn1c2ccc(C#N)cc2c2cc(C#N)cc(-c3ccc(N(c4ccccc4)c4ccccc4)cc3)c21` yielded an absorption maximum of 352 nm.
Under “in Cc1ccccc1”, `c1ccc(-c2nc(-c3ccccc3)c(-c3ccccc3)o2)cc1` displayed an absorption maximum of 311 nm.
`CC(C)(C)c1ccc2oc3nc4oc5ccc(N6c7ccccc7Oc7ccccc76)cc5c4cc3c2c1` had an absorption maximum (in ClC(Cl)Cl) of 347 nm.
As to `CC(C)Oc1ccc(C#Cc2cc3ccccc3oc2=O)cc1`, the absorption maximum (in CC#N) was determined as 356 nm.
As to `CCOc1ccc(/C=C/C=C/C=C/c2ccc([N+](=O)[O-])cc2)cc1`, the absorption maximum was determined as 414 nm (in CC1CCCCC1), 412 nm (in CC#N), 419 nm (in Cc1ccccc1) and 420 nm (in ClCCl).
As to `CNc1ccc2c(c1)C(=O)c1ccccc1-2`, the absorption maximum by setting is: (in C1CCCCC1) 474 nm; (in CC#N) 508 nm; (in CCO) 511 nm; (in c1ccccc1) 491 nm.
In turn, `CCCCCCc1ccc(-n2c3[n+](c4c5ccccc5c5ccccc5c42)[B-](C)(C)c2cc(-n4c5ccccc5c5ccccc54)ccc2-3)cc1` returned an absorption maximum (in C1CCOC1) of 370 nm, an absorption maximum (in CC#N) of 369 nm, an absorption maximum (in Cc1ccccc1) of 375 nm and an absorption maximum (in ClCCl) of 372 nm.
In the case of `CC(C)(C)c1ccc2oc3nc4oc5ccc(N6c7ccccc7Sc7ccccc76)cc5c4cc3c2c1`, the absorption maximum (in ClC(Cl)Cl) was found to be 348 nm.
On the same count and under the same terms, the result for `N#CC(C#N)=Cc1ccc(-c2ccc(N(c3ccccc3)c3ccccc3)cc2)o1` reads 509 nm.
Under “in ClCCl”, `CCCCCCC1(CCCCCC)c2cc(-c3ccc(-c4ccc(-c5ccc(-c6ccc7c(c6)C(CCCCCC)(CCCCCC)c6cc(-n8c9ccccc9c9ccccc98)ccc6-7)s5)c5nsnc45)s3)ccc2-c2ccc(-n3c4ccccc4c4ccccc43)cc21` had an absorption maximum of 513 nm.
`CC[N+]1(CC)CN2C(=N1)C(C(=O)O)=Cc1c(OC)ccc(OC)c12` registered an absorption maximum (in O) of 368 nm.
For the compound `COc1ccc(C2=C3C(C)=CC(C=Cc4ccc(C(=O)OC5C[C@H]6CCC5(C)C6(C)C)cc4)=[N+]3[B-](F)(F)n3c(C)cc(C)c32)cc1` (stereo not given in full), the absorption maximum (in Cc1ccccc1) was found to be 568 nm.
`c1cc2ccc1CCCc1ccc(c3nsnc13)CCC2` showed an absorption maximum (in C1CCCCC1) of 378 nm, an absorption maximum (in CC#N) of 384 nm and an absorption maximum (in ClC(Cl)Cl) of 384 nm.
On to `[O-]c1ccc2ccccc2c1`, for which the absorption maximum (in O) is listed as 346 nm.
For the setting “in CCO”, `O=c1c2cc(F)c(O)cc2sc2cc(O)c(F)cc12` came in with an absorption maximum of 377 nm.
Consider `CCCN1c2ccc(C#CC3=C4C=CC=[N+]4[B-](F)(F)n4cccc43)cc2Sc2cc(C#CC3=C4C=CC=[N+]4[B-](F)(F)n4cccc43)ccc21`, for which the absorption maximum (in ClCCl) worked out at 542 nm.
Regarding `N#CC(C#N)=Cc1ccc2c(c1)c1ccccc1n2-c1cc2ccccc2c2ccccc12`, the absorption maximum is, setting by setting: (in CC#N) 395 nm; (in CCCCC) 393 nm; (in Cc1ccccc1) 402 nm; (in ClCCl) 406 nm.
Compound `O=c1oc2ccc3ccc(O)cc3c2nc1-c1ccccc1` gave an absorption maximum (in c1ccccc1) of 406 nm.
The compound `CC(=O)c1ccc(-c2cc3c(ccc4sccc43)s2)cc1` returned an absorption maximum (in ClCCl) of 350 nm.
Where the note is “in O”, `CC[n+]1nc2cc3c4c(c2c2ccccc21)CCCN4CCC3` displayed an absorption maximum of 493 nm.
On to `CC1(C)C(/C=C/C2=C(Cl)C(=C/C=C3/N(Cc4ccccc4)c4ccccc4C3(C)C)/CCC2)=[N+](Cc2ccccc2)c2ccccc21`, for which, for the setting “in CO”, the absorption maximum is listed as 784 nm.
The compound `CCCCCCc1ccsc1-c1cc2c3cc(-c4sccc4CCCCCC)c4nc(C(F)(F)C(F)(F)C(F)(F)F)nc5c(-c6sccc6CCCCCC)cc(c6cc(-c7sccc7CCCCCC)c7nc(C(F)(F)C(F)(F)C(F)(F)F)nc1c7c26)c3c45` gave an absorption maximum (in C1CCOC1) of 521 nm.
`CCCCCCCCc1ccc(-c2c3cc(-c4cc(CCCCCCCC)c(-c5ccc(-c6sc(/C=C7\SC(=S)N(CC)C7=O)cc6CCCCCCCC)s5)s4)sc3c(-c3ccc(CCCCCCCC)s3)c3cc(-c4cc(CCCCCCCC)c(-c5ccc(-c6sc(/C=C7\SC(=S)N(CC)C7=O)cc6CCCCCCCC)s5)s4)sc23)s1` showed an absorption maximum (in ClC(Cl)Cl) of 509 nm.
With `O=C1c2ccccc2-c2c(-c3ccccc3O)[nH]c(=O)n21`, the absorption maximum by setting is: (in CC#N) 393 nm; (in CO) 396 nm; (in ClCCl) 394 nm.
For the compound `CC(C)[Si]1(C(C)C)c2cc(C#N)ccc2-c2ccc(N(c3ccccc3)c3ccccc3)cc21`, the absorption maximum worked out at 391 nm (in C1CCCCC1); 381 nm (in CC#N); 385 nm (in CCO); 383 nm (in CCOCC); 387 nm (in CS(C)=O); 388 nm (in ClCCl). For the same compound, where the note is “in c1ccccc1”, the absorption maximum was 389 nm.
In the case of `COc1ccc(C#CC2=C3CCc4ccccc4C3=[O+][B-](F)(F)O2)cc1`, the absorption maximum (in ClCCl) was 446 nm.
The compound `CN(C)c1ccc(C#Cc2ccc3ccc(=O)oc3c2)cc1` returned an absorption maximum (in CC#N) of 333 nm.
As for `COc1c(/C=N/Nc2ccc(C#N)cc2)ccc2ccccc12`, the absorption maximum reads like this: (in CC#N) 380 nm; (in CCCCCC) 387 nm; (in CO) 382 nm; (in CS(C)=O) 392 nm; (in ClC(Cl)Cl) 385 nm.
For `O=C(c1ccncc1)c1ccc(-n2c3ccccc3c3ccccc32)cc1`, the absorption maximum is, setting by setting: (in C1CCOC1) 353.15 nm; (in CCCCCC) 354.95 nm; (in Cc1ccccc1) 359 nm; (in ClCCl) 359.23 nm.
With `COc1ccc(/C=C/C(=O)c2ccccc2O)cc1OC`, the absorption maximum was found to be 350 nm (in C1CCOC1); 354 nm (in C1COCCO1); 352 nm (in CC#N); 360 nm (in CCCO); 359 nm (in CCO); 362 nm (in CN(C)C=O). The absorption maximum is listed as 357 nm (in CO), 365 nm (in CS(C)=O), 355 nm (in ClC(Cl)Cl) and 353 nm (in ClCCl).
Take `CC(C)(C)c1ccc(-c2cnc3cccc(-c4ccccc4)n23)cc1`: the absorption maximum (in ClCCl) amounted to 339 nm.
Still for that read-out and setting: the result for `Cc1ccc(O)c(-c2nc(C)c3n2CCCC3)c1` reads 321 nm.
`CN1C(=CC2=C([O-])C(=Cc3sc4ccccc4[n+]3C)C2=C(C#N)C#N)Sc2ccccc21` came in with an absorption maximum (in ClC(Cl)Cl) of 703 nm.
In the case of `N#CC1=C(N)n2c(=O)c3ccccc3c(=O)n2C1c1ccccc1` (stereo not given), under “in CS(C)=O”, the absorption maximum worked out at 360 nm.
For the setting “in ClCCl”, `F[B-]1(F)n2c(-c3ccccc3)c3ccc4ccccc4c3c2N=C2c3c(ccc4ccccc34)C(c3ccccc3)=[N+]21` registered an absorption maximum of 737 nm.
Consider `CCN(CC)c1ccc2c(c1)OC1=[N+](c3ccc(I)cc3)[B-](F)(F)n3c(nc4ccccc43)C1=C2`, for which, under “in ClCCl”, the absorption maximum was found to be 496 nm.
